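In this assay, cells in 96-well plates receive the compound at five concentrations for 48 hours. Endpoints are linearly interpolated between the surrounding concentrations. GI50 = concentration required for 50% inhibition of growth. TGI marks complete inhibition of growth.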 Where a SMILES comes first, the peptide text is derived from it.
Tests used:
Assay in all cases: NCI anticancer screen, dose series, 48 h
[1] = system: MDA-MB-435
[2] = system: SNB-75 CNS
[3] = system: MCF7 breast
[4] = system: HOP-62 NSCLC
[5] = system: RPMI-8226 leukemia
[6] = system: CAKI-1 renal
[7] = system: KM12 colon
[8] = system: ACHN renal
[9] = system: LOX IMVI melanoma
[10] = system: SF-268 CNS

Structure (SMILES)	TGI [1] [µM]	TGI [2] [µM]	TGI [3] [µM]	TGI [4] [µM]	TGI [5] [µM]	TGI [6] [µM]	TGI [7] [µM]	TGI [8] [µM]	TGI [9] [µM]	TGI [10] [µM]	GI50 [1] [nM]	GI50 [2] [nM]	GI50 [3] [µM]	GI50 [4] [nM]	GI50 [5] [nM]	GI50 [6] [nM]	GI50 [7] [µM]	GI50 [8] [nM]	GI50 [9] [nM]	GI50 [10] [µM]
CNc1ncnc(Sc2nc(N)nc3nc[nH]c23)c1[N+](=O)[O-]	12	2.83	> 41.5	> 100	1.79	12.9	25.3	14.7	12.2	> 36.5	–	–	–	–	–	–	–	–	–	–
CCC1(C)C=Cc2c(cc(OC)c3c(=O)c4ccccc4n(C)c23)O1 (configuration not stated)	> 10	> 10	> 10	> 10	> 10	2.53	> 10	> 10	> 10	> 10	–	–	–	–	–	–	–	–	–	–
CN(C)CCCNc1c(O)c2c(c(O)c1Cl)C(=O)C=CC2=O	4.33	> 10	3.22	7.87	–	> 10	> 10	> 10	3.13	–	–	–	–	–	–	–	–	–	–	–
OC1(c2ccccc2)CC2CCC(C1)N2CCc1ccccc1 (configuration not stated)	> 100	> 100	78.1	> 100	> 100	> 100	> 100	> 100	> 100	> 100	–	–	–	–	–	–	–	–	–	–
O=c1[nH]c2ccc(C(F)(F)F)cc2nc1-c1ccccc1	> 100	> 100	> 100	> 100	> 100	> 100	–	> 100	> 100	> 100	–	–	–	–	–	–	–	–	–	–
CCOC(=O)C1C(=O)CC(O)(OCC)C(C(=O)OCC)C1c1ccc(OC)cc1 (configuration not stated)	> 100	> 100	> 100	> 100	–	> 100	> 100	> 100	> 100	> 100	–	–	–	–	–	–	–	–	–	–
Cc1cc2nc3n[nH]c(N)c3nc2cc1C	> 100	87.8	> 100	> 100	> 100	> 100	> 100	> 100	> 100	> 100	–	–	–	–	–	–	–	–	–	–
C=C1C(=O)O[C@@H]2[C@H]3O[C@]3(C)CCC=C(C)CC[C@@H]12	–	123	47.4	102	77.2	22.5	53.6	–	21.2	62.6	–	–	–	–	–	–	–	–	–	–
CCOc1c2ccsc2c(OCC)c2ccsc12	3.15	> 28.3	31.7	> 100	> 100	> 100	> 100	> 100	23	> 100	–	–	–	–	–	–	–	–	–	–
CN(C)c1nc(N(C)C)nc(N(C)C)n1	> 150	149	> 150	> 142	> 150	> 140	> 150	> 150	> 150	> 150	–	–	–	–	–	–	–	–	–	–
CCOC(=O)C1(C(=O)OCC)C[C@]23OCCC(=O)[C@H]2[C@H]2C(=O)OC(C)(C)O[C@]23C1	> 100	> 100	> 100	> 100	> 100	> 100	> 100	> 100	> 100	> 100	–	–	–	–	–	–	–	–	–	–
CCCC1NC(=O)C(CC(C)C)NC(=O)c2cccc(n2)C(=O)NC(CC(C)C)C(=O)NC(CCC)C(=O)NC(C(=O)OC)CCCCNC1=O (configuration not stated)	> 100	57.7	> 100	> 100	32	> 100	59.3	–	44.4	> 100	–	–	–	–	–	–	–	–	–	–
CCN(CC)C(=S)SS(=O)(=O)c1ccccc1C(=O)O	> 100	> 100	> 100	> 100	> 100	> 100	> 100	> 100	> 100	> 100	–	–	–	–	–	–	–	–	–	–
CC(=O)OCC1OC(On2ccccc2=S)C(OC(C)=O)C(OC(C)=O)C1OC(C)=O (configuration not stated)	> 100	> 100	> 100	> 100	–	> 100	> 100	> 100	> 100	> 100	–	–	–	–	–	–	–	–	–	–
CCc1ccc(-c2nnc(COc3ccc(-c4nc5ccc(C)cc5[nH]4)cc3OC)o2)cc1	6.97	2.96	> 100	6.46	5.75	4.92	> 100	3.19	4.25	> 100	2510	1410	3.36	2440	2260	2070	5.39	1780	1980	4.47
CNC(=S)/C(=N\Nc1nc[nH]c1C(N)=O)C(N)=S	> 100	71.9	> 100	> 100	55.7	> 94.4	24.4	61.8	> 37.9	> 54.2	–	–	–	–	–	–	–	–	–	–
CCOC(=O)c1c(C)n(Cc2ccccc2)c(=O)c2ccccc2c(=O)c2c(=O)ccc(=O)c1=2	> 100	> 100	–	> 100	67.3	> 100	> 100	77.1	53.5	> 100	–	–	–	–	–	–	–	–	–	–
COc1ccc(/C=C2\C=Cc3ccccc32)cc1OC	> 100	82.2	> 100	> 100	–	> 100	> 100	> 100	> 100	> 100	–	–	–	–	–	–	–	–	–	–
Cc1[nH]c2ncn3nc(C(Cl)(Cl)Cl)nc3c2c1Cc1ccccc1	> 100	> 100	> 100	> 100	> 100	> 100	> 100	> 100	–	> 100	–	–	–	–	–	–	–	–	–	–
O=C(OCCN=C1c2ccccc2CCc2ccccc21)c1cc([N+](=O)[O-])cc([N+](=O)[O-])c1	> 31.6	> 100	> 31.6	> 31.6	8.14	> 31.6	> 31.6	> 31.6	> 31.6	> 31.6	–	–	–	–	–	–	–	–	–	–
CSC1=N/C(=C\c2ccc(C)cc2)C(=O)N1CN1CCOCC1	> 100	> 100	> 100	> 100	> 100	–	> 100	> 100	> 100	> 100	–	–	–	–	–	–	–	–	–	–
S=c1ssc2c3ssc(=S)c3n(Cc3ccccc3)c12	> 100	> 100	> 100	> 100	> 100	> 100	> 100	> 100	> 100	> 100	–	–	–	–	–	–	–	–	–	–
CCOC(=O)c1nc2cc(N3CCOCC3)c(F)cc2[nH]c1=O	> 100	> 100	> 100	> 100	> 100	> 100	> 100	> 100	–	> 100	–	–	–	–	–	–	–	–	–	–

Structure (SMILES)	TGI [1] [µM]	TGI [2] [µM]	TGI [3] [µM]	TGI [4] [µM]	TGI [5] [µM]	TGI [6] [µM]	TGI [7] [µM]	TGI [8] [µM]	TGI [9] [µM]	TGI [10] [µM]	GI50 [1] [nM]	GI50 [2] [nM]	GI50 [3] [µM]	GI50 [4] [nM]	GI50 [5] [nM]	GI50 [6] [nM]	GI50 [7] [µM]	GI50 [8] [nM]	GI50 [9] [nM]	GI50 [10] [µM]
CN1CCCN2CCN(C)CCN(CC1)CC2	> 100	> 100	> 100	> 100	> 100	> 100	> 100	> 100	> 100	> 100	–	–	–	–	–	–	–	–	–	–
CCOC(=O)CC(=O)NC1CC2CCC1(C)C2(C)C (configuration not stated)	> 100	> 100	> 100	> 100	> 100	> 100	> 100	> 100	> 100	> 100	–	–	–	–	–	–	–	–	–	–
CCOC(=O)CN1CCNCCN(CC(=O)OCC)CCNCC1	> 100	> 100	> 100	> 100	> 100	> 100	> 100	> 100	> 100	–	–	–	–	–	–	–	–	–	–	–
c1ccc(COc2ccc(CC3SCCCS3)cc2)cc1	> 100	–	> 100	> 100	> 100	> 100	–	> 100	> 100	> 100	–	–	–	–	–	–	–	–	–	–
O=c1c(O)c(-c2ccc(O)cc2O)oc2cc(O)cc(O)c12	> 100	> 100	> 100	> 100	–	> 100	> 100	> 100	> 100	> 100	–	–	–	–	–	–	–	–	–	–
CSC(SC)=C1CC(=O)Nc2ccccc2C1=O	> 100	–	> 100	> 100	–	94.1	> 100	> 100	32.5	> 100	–	–	–	–	–	–	–	–	–	–
C=C[C@@H]1OC(=O)O[C@H]1CO	> 100	> 100	> 100	> 100	> 100	–	> 100	> 100	> 100	> 100	–	–	–	–	–	–	–	–	–	–
CC1NC(=O)CNC(=O)CNC(=O)C(Cc2ccc(O)cc2)NC(=O)C(C(C)C)NC(=O)C(C)NC1=O (configuration not stated) (cyclo(GGAAVY); configuration not given here)	–	> 100	> 100	> 100	> 100	> 100	> 100	–	> 100	> 100	–	–	–	–	–	–	–	–	–	–
O=C(NN=C1CCN(Cc2ccccc2)CC1)C(O)(c1ccccc1)c1ccccc1	> 100	> 100	> 100	> 100	> 100	–	> 100	–	> 100	> 100	–	–	–	–	–	–	–	–	–	–
Cc1ccc(/C=C2\CN(C)CC3=C2OC(N)=C(C#N)C3c2ccc(C)cc2)cc1 (configuration not stated)	34.7	–	47.8	52.7	> 48.7	74.6	39.3	50	27.2	> 100	–	–	–	–	–	–	–	–	–	–
CCCCCC(CN1CCOCC1)C(=O)/C=C/c1ccccc1 (configuration not stated)	–	20	–	16.9	9.03	–	3.79	–	2.67	5.02	–	–	–	–	–	–	–	–	–	–
Cn1cc(C(=O)c2nccc3c2cnc2ccccc23)ccc1=O	> 100	> 100	–	> 100	> 100	> 100	> 100	> 100	> 100	> 100	–	–	–	–	–	–	–	–	–	–
NCc1ccc(-c2ccc(-c3ccc(-c4ccc(CN)s4)s3)s2)s1	> 100	> 100	> 100	> 100	> 100	> 100	> 100	> 100	> 100	–	–	–	–	–	–	–	–	–	–	–
Cc1cc(-c2ccc(C(=O)O)[nH]2)on1	> 100	> 100	> 100	> 100	> 100	> 100	> 100	> 100	–	> 100	–	–	–	–	–	–	–	–	–	–
CC1=C2C(O)C(C(C)C(=O)NCC(C)C)CCC2(C)C=CC1=O (configuration not stated)	–	> 100	> 100	> 100	> 100	> 100	> 100	–	> 100	> 100	–	–	–	–	–	–	–	–	–	–
COc1ccc2c(c1)C(N)CC2=O (configuration not stated)	> 100	> 100	> 100	> 100	> 100	> 100	> 100	> 100	–	> 100	–	–	–	–	–	–	–	–	–	–
S=c1[nH]nc(COc2ccc3c(c2)CCCC3)n1/N=C/c1ccc(Cl)cc1	39.4	–	27.9	32.3	36.1	37.2	31.7	36	37	43	–	–	–	–	–	–	–	–	–	–
COC(CN(C)C(=O)C(C)NC(=O)c1ccccc1)OC (configuration not stated)	> 100	> 100	> 100	–	> 100	> 100	> 100	> 100	–	> 100	–	–	–	–	–	–	–	–	–	–
COc1c(CC=C(C)C)c(O)c(C(CC(C)C)c2c(O)c(C(C)=O)c(O)c3c2OC(C(C)(C)O)C3)c(O)c1C(C)=O (configuration not stated)	> 12.5	–	> 12.5	–	–	> 12.5	–	> 12.5	> 12.5	> 12.5	–	–	–	–	–	–	–	–	–	–
CC(C)=CCC[C@]1(C)CC[C@]2(C)C3CCC(=C(C)C)[C@@H](CCCO)[C@]3(C)CC[C@@]2(C)C1 (some centres not stated)	> 100	> 100	67.5	> 100	> 100	> 100	> 100	> 100	–	> 100	–	–	–	–	–	–	–	–	–	–
NC(N)=NCCCC(N=c1c2ccccc2n(O)c2ccccc12)C(=O)O (configuration not stated)	–	87.6	–	> 100	75.7	–	> 100	> 100	> 100	> 100	–	–	–	–	–	–	–	–	–	–
NC(=O)NC(=O)c1cnccn1	> 100	–	> 100	> 100	> 100	> 100	> 100	> 100	> 100	> 100	–	–	–	–	–	–	–	–	–	–
COc1ccc2[nH]c(CCNC(=O)c3cc([N+](=O)[O-])cc([N+](=O)[O-])c3)cc2c1	> 100	46.2	> 100	60.6	> 100	> 100	> 100	–	> 100	> 100	–	–	–	–	–	–	–	–	–	–

Source: PubChem BioAssay (NCI)
